Source: PubChem BioAssay (NCI)
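GI50 marks 50% less growth. The concentration for full growth arrest is given as TGI.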

How the values were obtained:
Test in all cases: NCI anticancer screen, dose series, 384-well format
COLO 205 colon = system: COLO 205 colon
U251 glioblastoma = system: U251 glioblastoma
EKVX NSCLC = system: EKVX NSCLC
SNB-75 CNS = system: SNB-75 CNS
CCRF-CEM leukemia = system: CCRF-CEM leukemia
ACHN renal = system: ACHN renal
HCT-116 colon = system: HCT-116 colon
HOP-62 NSCLC = system: HOP-62 NSCLC
SK-MEL-28 melanoma = system: SK-MEL-28 melanoma
MCF7 breast = system: MCF7 breast
SF-539 CNS = system: SF-539 CNS
HS 578T breast = system: HS 578T breast
HOP-92 NSCLC = system: HOP-92 NSCLC
MDA-MB-231 breast = system: MDA-MB-231 breast
MDA-MB-468 breast = system: MDA-MB-468 breast
BT-549 breast = system: BT-549 breast
NCI-H322M lung = system: NCI-H322M lung
K-562 leukemia = system: K-562 leukemia
UACC-62 melanoma = system: UACC-62 melanoma
A498 renal = system: A498 renal
SNB-19 CNS = system: SNB-19 CNS
SF-295 CNS = system: SF-295 CNS
LOX IMVI melanoma = system: LOX IMVI melanoma
SR leukemia = system: SR leukemia
786-0 renal = system: 786-0 renal
NCI-H226 lung = system: NCI-H226 lung
OVCAR-4 ovarian = system: OVCAR-4 ovarian
OVCAR-8 ovarian = system: OVCAR-8 ovarian
T-47D breast = system: T-47D breast
DU-145 prostate = system: DU-145 prostate
RXF 393 renal = system: RXF 393 renal
SK-OV-3 ovarian = system: SK-OV-3 ovarian
OVCAR-3 ovarian = system: OVCAR-3 ovarian
M14 melanoma = system: M14 melanoma
A549 NSCLC = system: A549 NSCLC
NCI-H460 NSCLC = system: NCI-H460 NSCLC
UO-31 renal = system: UO-31 renal
HT29 colon = system: HT29 colon
HCC-2998 colon = system: HCC-2998 colon
HCT-15 colon = system: HCT-15 colon
TK-10 renal = system: TK-10 renal
HL-60(TB) leukemia = system: HL-60(TB) leukemia
OVCAR-5 ovarian = system: OVCAR-5 ovarian
CAKI-1 renal = system: CAKI-1 renal
PC-3 prostate = system: PC-3 prostate
SW-620 colon = system: SW-620 colon
IGROV1 ovarian = system: IGROV1 ovarian
MALME-3M melanoma = system: MALME-3M melanoma
NCI-H522 lung = system: NCI-H522 lung
RPMI-8226 leukemia = system: RPMI-8226 leukemia
SK-MEL-5 melanoma = system: SK-MEL-5 melanoma
MDA-MB-435 melanoma = system: MDA-MB-435 melanoma
SF-268 CNS = system: SF-268 CNS
SN12C renal = system: SN12C renal
NCI-H23 lung = system: NCI-H23 lung
NCI/ADR-RES ovarian = system: NCI/ADR-RES ovarian
MOLT-4 leukemia = system: MOLT-4 leukemia
UACC-257 melanoma = system: UACC-257 melanoma
KM12 colon = system: KM12 colon

Cc1c(C(=O)Nc2ccc(Oc3ccnc4cc(OCC(C)(C)O)ccc34)c(F)c2)c(=O)n(-c2ccccc2)n1C
GI50 (COLO 205 colon): 2.26 µM | TGI (COLO 205 colon): 6.93 µM | GI50 (U251 glioblastoma): 4.93 µM | TGI (U251 glioblastoma): > 100 µM | GI50 (EKVX NSCLC): 2.61 µM | TGI (EKVX NSCLC): 8.53 µM | GI50 (SNB-75 CNS): 2.68 µM | TGI (SNB-75 CNS): > 28.1 µM | GI50 (CCRF-CEM leukemia): 2.61 µM | TGI (CCRF-CEM leukemia): 7.97 µM | GI50 (ACHN renal): 3.39 µM | TGI (ACHN renal): > 100 µM | GI50 (HCT-116 colon): 3.97 µM | TGI (HCT-116 colon): > 100 µM | GI50 (HOP-62 NSCLC): 2.34 µM | TGI (HOP-62 NSCLC): > 22.5 µM | GI50 (SK-MEL-28 melanoma): 3.58 µM | TGI (SK-MEL-28 melanoma): > 30.3 µM | GI50 (MCF7 breast): 3.5 µM | TGI (MCF7 breast): > 38.9 µM | GI50 (SF-539 CNS): 3.68 µM | TGI (SF-539 CNS): > 100 µM | GI50 (HS 578T breast): 1.86 µM | TGI (HS 578T breast): 4.85 µM | GI50 (HOP-92 NSCLC): 2.36 µM | TGI (HOP-92 NSCLC): > 25.8 µM | GI50 (MDA-MB-231 breast): 3.26 µM | TGI (MDA-MB-231 breast): > 30.4 µM | GI50 (MDA-MB-468 breast): 1.62 µM | TGI (MDA-MB-468 breast): 4.86 µM | GI50 (BT-549 breast): > 23.7 µM | TGI (BT-549 breast): > 65.3 µM | GI50 (NCI-H322M lung): 3.34 µM | TGI (NCI-H322M lung): 21.8 µM | GI50 (K-562 leukemia): 0.152 µM | TGI (K-562 leukemia): 0.391 µM | GI50 (UACC-62 melanoma): 1.41 µM | TGI (UACC-62 melanoma): 4.21 µM | GI50 (A498 renal): 3.58 µM | TGI (A498 renal): > 37.7 µM | GI50 (SNB-19 CNS): 4.78 µM | TGI (SNB-19 CNS): > 100 µM | GI50 (SF-295 CNS): 1.37 µM | TGI (SF-295 CNS): > 23.6 µM | GI50 (LOX IMVI melanoma): 2.65 µM | TGI (LOX IMVI melanoma): > 44 µM | GI50 (SR leukemia): 2 µM | TGI (SR leukemia): 3.82 µM | GI50 ([…]-0 renal): 5.8 µM | TGI (786-0 renal): 96.9 µM | GI50 (NCI-H226 lung): 1.93 µM | TGI (NCI-H226 lung): 7.08 µM | GI50 (OVCAR-4 ovarian): 4.8 µM | TGI (OVCAR-4 ovarian): > 100 µM | GI50 (OVCAR-8 ovarian): 3.69 µM | TGI (OVCAR-8 ovarian): > 88.7 µM | GI50 (T-47D breast): 1.57 µM | TGI (T-47D breast): 4.72 µM | GI50 (DU-145 prostate): 6.27 µM | TGI (DU-145 prostate): > 100 µM | GI50 (RXF 393 renal): 1.66 µM | TGI (RXF 393 renal): 4.11 µM | GI50 (SK-OV-3 ovarian): 3.51 µM | TGI (SK-OV-3 ovarian): > 50.8 µM | GI50 (OVCAR-3 ovarian): 4.83 µM | TGI (OVCAR-3 ovarian): > 100 µM | GI50 (M14 melanoma): 2.68 µM | TGI (M14 melanoma): > 22.7 µM | GI50 (A549 NSCLC): 4.26 µM | TGI (A549 NSCLC): > 100 µM | GI50 (NCI-H460 NSCLC): 2.62 µM | TGI (NCI-H460 NSCLC): 6.33 µM | GI50 (UO-31 renal): 4.31 µM | TGI (UO-31 renal): > 100 µM | GI50 (HT29 colon): 2.55 µM | TGI (HT29 colon): > 100 µM | GI50 (HCC-2998 colon): > 31.1 µM | TGI (HCC-2998 colon): > 100 µM | GI50 (HCT-15 colon): 4.13 µM | TGI (HCT-15 colon): > 69.6 µM | GI50 (TK-10 renal): 5.2 µM | TGI (TK-10 renal): > 100 µM | GI50 (HL-60(TB) leukemia): 3.5 µM | TGI (HL-60(TB) leukemia): 6.78 µM | GI50 (OVCAR-5 ovarian): 3.04 µM | TGI (OVCAR-5 ovarian): > 100 µM | GI50 (CAKI-1 renal): 0.963 µM | TGI (CAKI-1 renal): > 39 µM | GI50 (PC-3 prostate): 3.76 µM | TGI (PC-3 prostate): > 100 µM | GI50 (SW-620 colon): 4.53 µM | TGI (SW-620 colon): > 100 µM | GI50 (IGROV1 ovarian): 4.3 µM | TGI (IGROV1 ovarian): > 100 µM | GI50 (MALME-3M melanoma): 2.11 µM | TGI (MALME-3M melanoma): 5.14 µM | GI50 (NCI-H522 lung): 3.74 µM | TGI (NCI-H522 lung): > 36.9 µM | GI50 (RPMI-8226 leukemia): 3.03 µM | TGI (RPMI-8226 leukemia): 7.45 µM | GI50 (SK-MEL-5 melanoma): 1.89 µM | TGI (SK-MEL-5 melanoma): 4.77 µM | GI50 (MDA-MB-435 melanoma): 3.31 µM | TGI (MDA-MB-435 melanoma): > 31.4 µM | GI50 (SF-268 CNS): 3.23 µM | TGI (SF-268 CNS): > 19.7 µM | GI50 (SN12C renal): 0.484 µM | TGI (SN12C renal): 4.82 µM | GI50 (NCI-H23 lung): 1.52 µM | TGI (NCI-H23 lung): 7.35 µM | GI50 (NCI/ADR-RES ovarian): 4.13 µM | TGI (NCI/ADR-RES ovarian): > 44.1 µM | GI50 (MOLT-4 leukemia): 1.46 µM | TGI (MOLT-4 leukemia): 3.66 µM | GI50 (UACC-257 melanoma): 3.24 µM | TGI (UACC-257 melanoma): 22 µM | GI50 (KM12 colon): 0.258 µM | TGI (KM12 colon): > 100 µM
